This is an account of results in patent publication US20250107513A1, “METHOD FOR COUNTING EMBRYOS DEVELOPING IN A UTERUS OF CAENORHABDITIS ELEGANS” (Shanghai University, priority 2022, published 2025).

The test system of the data set is Caenorhabditis elegans. The experiment in a line: counting embryos developing in the uterus of Caenorhabditis elegans after TPHP exposure. To be noted: then cultured until pregnancy, relative to the control group, p<0.01. In kind it is in vivo. As for the experimental part: As shown in a flowchart (FIG. 1) of a method in the present invention, this embodiment provides a method for counting embryos developing in a uterus of Caenorhabditis elegans exposed to a chemical of triphenyl phosphate (TPHP) for 72 hours, specifically including the following steps:
Step 5: Subject Caenorhabditis elegans to synchronization treatment. Nematode eggs are added dropwise to the NGM medium containing no E. coli, the nematode eggs are cultured at 20° C. for 16 to 20 hours under dark conditions, where Caenorhabditis elegans are in the L1 stage, and Caenorhabditis elegans at the stage are rinsed into a 1.5 mL centrifuge tube with the K solution 3 times.
Step 6: Prepare exposure solutions. 0.1000 g of TPHP solid is weighed accurately, the TPHP solid is dissolved in dimethyl sulfoxide until a concentration reaches 10 g/L, and then TPHP solutions are diluted with dimethyl sulfoxide again until concentrations reach 10 mg/L, 100 mg/L, 1000 mg/L and 5000 mg/L to be used as mother liquors later. Dimethyl sulfoxide is used as the mother liquor of the blank control group. The mother liquors are further diluted by 100 folds with the K solution and then diluting the diluted mother liquors by 100 folds with a K+ solution to finally obtain exposure solutions of Caenorhabditis elegans containing 0 μg/L (control group), 1 μg/L, 10 μg/L, 100 μg/L and 500 μg/L TPHP.
Step 7: Expose Caenorhabditis elegans to a TPHP solution. A prepared TPHP exposure solution is added to a sterile 6-well plate with 5 mL of prepared TPHP exposure solution per well. Caenorhabditis elegans at the L1 stage are then evenly added to the 6-well plate after the synchronization treatment, Caenorhabditis elegans are fed with 100 μg/L E. coli daily, and Caenorhabditis elegans are cultured for 72 hours.
Step 8: Select Caenorhabditis elegans at an exposure stage. The method in the present invention is applicable to pregnant Caenorhabditis elegans, and this is because Caenorhabditis elegans are […] after being exposed to TPHP for 72 hours. […]
Step 11: Count embryos in the uterus of Caenorhabditis elegans. The 24-well plate containing transparent Caenorhabditis elegans is put under an optical stereomicroscope, and exposed embryos of each Caenorhabditis elegans are counted, where exposed embryos of at least 25 nematodes are counted in each treatment group.
Step 12: Analyze data. Data is analyzed by using SPSS software, a confidence interval of samples is set to 95%, and an intra-group mean and mean error of the numbers of embryos developing in nematodes in different treatment groups are calculated, where the data can be selectively in a format of a mean percentage or multiple based on requirements of the experiment. […]

Regarding `O=P(Oc1ccccc1)(Oc1ccccc1)Oc1ccccc1` [TPHP, triphenyl phosphate], the “decrease in the numbers of embryos in the uteri” value (from here on “decrease in the numbers”) (exposure to 1 μg/L TPHP from L1 stage for 72 hours) is 14.2%, the “decrease in the numbers” value (exposure to 10 μg/L TPHP from L1 stage for 72 hours) amounted to 18.2%, the “decrease in the numbers” value (exposure to 100 μg/L TPHP from L1 stage for 72 hours) was found to be 18.1% and the “decrease in the numbers” value (exposure to 500 μg/L TPHP from L1 stage for 72 hours) amounted to 21.8%.
